The target in test [1] is T1, Tau K18 fragment (amino acids 244 to 372 of human Tau441) aggregates (Homo sapiens, UniProt P10636).
T1 construct: encompassing amino acids 244 to 372 of the longest isoform (2N4R) of human Tau441; host or cells: bacteria
Description: Tau K18 disaggregation assay by ThT. In kind it is biochemical. The settings on record: 2 μM K18 aggregates, 30 minutes at RT, ThT fluorescence. The method, then: Tau K18 Disaggregation Assay by ThT
(§1) Compounds were dissolved in anhydrous dimethyl sulfoxide (DMSO, Sigma-Aldrich) to reach a concentration of 10 mM. K18 aggregates and serial dilutions of compounds were mixed together in PBS (volume 50 μL) to a final concentration of 2 μM of K18 aggregates and from 160 to 0.04 μM of compounds. The mixture was incubated for 30 minutes at room temperature (RT), then 40 μL of this mixture were transferred into a black 384-well plate assay (Perkin-Elmer) and mixed with 10 μL of 100 μM ThT in 250 mM glycine (both from Sigma-Aldrich) in PBS. Fluorescence (relative fluorescence units; RFU) was measured in monoplicate or duplicate on a Tecan reader (excitation: 440 nm; emission: 485 nm). Percentage of K18 disaggregation was then calculated and half maximal effective concentration (EC50) was determined using GraphPad Prism version 5 (GraphPad Software) assuming a one-binding site fitting model.

The target of test [2] is T2, recombinant full-length (fl)Tau (human Tau 2N4R) aggregates (Homo sapiens, UniProt P10636).
T2 construct: 35 μM of recombinant full-length (fl)Tau in PBS were aggregated; made in house; host or cells: bacteria
T2 sequence (P10636 1-441 isoform P10636-8): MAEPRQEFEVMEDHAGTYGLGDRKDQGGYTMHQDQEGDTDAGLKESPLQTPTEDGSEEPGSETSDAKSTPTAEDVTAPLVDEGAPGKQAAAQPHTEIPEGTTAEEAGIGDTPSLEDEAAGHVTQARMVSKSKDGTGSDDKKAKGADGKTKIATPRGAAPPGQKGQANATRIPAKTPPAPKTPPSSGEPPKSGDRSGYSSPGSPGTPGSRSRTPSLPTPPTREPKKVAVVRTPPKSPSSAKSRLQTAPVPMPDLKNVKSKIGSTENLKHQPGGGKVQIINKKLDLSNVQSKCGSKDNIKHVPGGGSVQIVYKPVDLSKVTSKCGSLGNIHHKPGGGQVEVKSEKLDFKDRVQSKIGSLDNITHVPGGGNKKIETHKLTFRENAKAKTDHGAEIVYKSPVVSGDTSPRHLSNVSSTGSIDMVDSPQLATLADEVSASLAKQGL
Description: Full-length Tau (flTau) disaggregation assay by Thioflavin T (ThT). The settings on record: 2 μM flTau aggregates, 30 minutes at RT, ThT fluorescence. The test is classed as biochemical. On the procedure:
Full-Length Tau (flTau) Disaggregation Assay by Thioflavin T (ThT)
as §1, with “The longest isoform of human Tau (2N4R; 441 amino acids) was expressed in bacteria and purified. For the Tau disaggregation assay by ThT, 35 μM of recombinant full-length (fl)Tau in PBS were aggregated for 24 hours at 37° C. in presence of 50 μM of heparin (Sigma-Aldrich) and 10 mM of DTT (Sigma-Aldrich) under shaking at 750 RPM. Compounds were” for “Compounds were”, “10 mM. flTau aggregates and” for “10 mM. K18 aggregates and”, “μM of flTau aggregates and” for “μM of K18 aggregates and”, “Percentage of flTau disaggregation was” for “Percentage of K18 disaggregation was”, “calculated and the half maximal” for “calculated and half maximal”

T1 sequence (P10636 561-689): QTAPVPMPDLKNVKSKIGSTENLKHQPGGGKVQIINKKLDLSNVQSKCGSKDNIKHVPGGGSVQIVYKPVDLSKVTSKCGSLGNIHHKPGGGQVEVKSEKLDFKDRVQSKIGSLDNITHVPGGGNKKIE

For `CN(C)c1nc2ccc(N3CCc4c(c5cc(F)ccc5n4C)C3)cc2s1` [Example 3], the values for the EC50 in test [1] and in test [2] were < 10 µM and 10 to 25 µM, respectively.

Regarding `Fc1ccc2[nH]c3c(c2c1)CN(c1ccc2sc(N4CCOCC4)nc2c1)CC3` [Example 9], the EC50 in test [1] and in test [2] was < 10 µM in each case. In the case of `CN(C)c1nc2ccc(N3CCc4[nH]c5ccc(F)cc5c4C3)cc2o1` [Example 13], the results for the EC50 in test [1] and in test [2] were < 10 µM and 10 to 25 µM, respectively.

Turning to `COc1ccc2c(c1)c1c(n2C)CCN(c2ccc3nc(N4CCOCC4)sc3c2)C1` [Example 16], the EC50 – broadly, the concentration at which the effect is half-maximal – in test [2] was < 10 µM. In the case of `Cn1c2c(c3cc(F)cnc31)CN(c1ccc3nc(N4CCOCC4)sc3c1)CC2` [Example 17], the EC50 in test [2] was < 10 µM. Still for that read-out and setting: next, `COc1ccc2[nH]c3c(c2c1)CN(c1ccc2nc(N4CCOCC4)oc2c1)CC3` [Example 18]: 10 to 25 µM; `COc1ccc2c(c1)c1c(n2C)CCN(c2ccc3oc(N4CCOCC4)nc3c2)C1` [Example 21]: 10 to 25 µM. The same measure, in the same setting: next, `Cn1c2c(c3cc(F)ccc31)CN(c1ccc3sc(N4CCOCC4)nc3c1)CC2` [Example 22]: 25 to 50 µM. Turning to `COc1ccc2[nH]c3c(c2c1)CN(c1ccc2sc(N4CCOCC4)nc2c1)CC3` [Example 23], the EC50 in test [2] was in the range of 25 to 50 µM.

Turning to `COc1ccc2[nH]c3c(c2c1)CN(c1ccc2oc(N4CCOCC4)nc2c1)CC3` [Example 24], the EC50 in test [1] is < 10 µM; in test [2], 25 to 50 µM.

Consider `CC(C)Nc1nc2cc(N3CCc4c(c5cc(F)ccc5n4C)C3)ccc2s1` [Example 25], for which, in test [2], the EC50 was < 10 µM. On the same count and under the same terms, the figure for `CN(C)c1nc2cc(N3CCc4c(c5cc(F)ccc5n4C)C3)ccc2s1` [Example 28] is < 10 µM. `CN(C)c1nc2cc(N3CCc4c(c5cc(F)ccc5n4C)C3)ccc2o1` [Example 29]: the EC50 in test [2] is < 10 µM. Same read-out and setting: next, `COc1ccc2[nH]c3c(c2c1)CN(c1ccc2sc(N(C)C)nc2c1)CC3` [Example 30]: < 10 µM. Same read-out and setting: the figure for `COc1ccc2c(c1)c1c(n2C)CCN(c2ccc3nc(N(C)C)sc3c2)C1` [Example 31] is < 10 µM; for `COc1ccc2c(c1)c1c(n2C)CCN(c2ccc3sc(N(C)C)nc3c2)C1` [Example 32] it is 25 to 50 µM; for `COc1ccc2c(c1)c1c(n2C)CCN(c2ccc3nc(N(C)C)oc3c2)C1` [Example 33] it is < 10 µM. Same read-out and setting: next, `CN(C)c1nc2ccc(N3CCc4c(c5cc(F)cnc5n4C)C3)cc2s1` [Example 34]: < 10 µM. Consider `Cn1c2c(c3cc(F)cnc31)CN(c1ccc3oc(N4CCOCC4)nc3c1)CC2` [Example 36], for which, in test [2], the EC50 was < 10 µM. On to `Cn1c2c(c3cc(F)cnc31)CN(c1ccc3nc(N4CCOCC4)oc3c1)CC2` [Example 39], for which, in test [2], the EC50 fell in the range of 25 to 50 µM. The same measure, in the same setting: next, `COc1ccc2[nH]c3c(c2c1)CN(c1ccc2nc(N(C)C)oc2c1)CC3` [Example 40]: 10 to 25 µM; `CN(C)c1nc2cc(N3CCc4c(c5ccc(F)cc5n4C)C3)ccc2o1` [Example 42]: 10 to 25 µM; `Fc1ccc2c3c([nH]c2c1)CCN(c1ccc2nc(N4CCOCC4)sc2c1)C3` [Example 43]: < 10 µM. Same read-out and setting: the figure for `Fc1ccc2c3c([nH]c2c1)CCN(c1ccc2nc(N4CCOCC4)oc2c1)C3` [Example 44] is 10 to 25 µM; for `Fc1ccc2oc3c(c2c1)CN(c1ccc2oc(N4CCOCC4)nc2c1)CC3` [Example 49] it is < 10 µM.

As to `CN(C)c1nc2ccc(N3CCc4[nH]c5cc(F)ccc5c4C3)cc2s1` [Example 54], in test [2], the EC50 is < 10 µM. The same measure, in the same setting: the figure for `CN(C)c1nc2cc(N3CCc4[nH]c5cc(F)ccc5c4C3)ccc2o1` [Example 56] is < 10 µM; for `Cn1c2c(c3ccc(F)cc31)CN(c1ccc3sc(N4CCOCC4)nc3c1)CC2` [Example 61] it is < 10 µM. On the same count and under the same terms, the figure for `Cn1c2c(c3ccc(F)cc31)CN(c1ccc3nc(N4CCOCC4)oc3c1)CC2` [Example 62] is < 10 µM; for `Fc1ccc2c3c([nH]c2c1)CCN(c1ccc2sc(N4CCOCC4)nc2c1)C3` [Example 63] it is < 10 µM; for `Cn1c2c(c3ccc(F)cc31)CN(c1ccc3oc(N4CCOCC4)nc3c1)CC2` [Example 65] it is < 10 µM. On the same count and under the same terms, the figure for `CN(C)c1nc2ccc(N3CCc4c(c5ccc(F)cc5n4C)C3)cc2s1` [Example 67] is < 10 µM; for `Fc1ccc2[nH]c3c(c2c1)CN(c1ccc(N2CCOCC2)nc1)CC3` [Example 74] it is 25 to 50 µM. Turning to `Cn1c2c(c3cc(F)ccc31)CN(c1ccc(N3CCOCC3)nc1)CC2` [Example 75], the EC50 in test [2] fell in the range of 10 to 25 µM.

On to `C[C@@H]1CN(c2nc3cc(N4CCc5[nH]c6cc(F)ccc6c5C4)ccc3o2)CCO1` [Example 130], for which, in test [1], the EC50 was < 10 µM. Same read-out and setting: the figure for `COc1cc(N2CCc3[nH]c4cc(F)ccc4c3C2)ccn1` [Example 132] is < 10 µM. On the same count and under the same terms, next, `COc1ccc2c3c([nH]c2c1)CCN(c1ccc2oc(N4CCOCC4)nc2c1)C3` [Example 133]: < 10 µM. Still for that read-out and setting: next, `CCOc1ccc2[nH]c3c(c2c1)CN(c1ccc2oc(N4CCOCC4)nc2c1)CC3` [Example 136]: 10 to 25 µM. With `Cc1cccc2c3c([nH]c12)CCN(c1ccc2oc(N4CCOCC4)nc2c1)C3` [Example 137], the EC50 in test [1] is < 10 µM. Still for that read-out and setting: the figure for `COc1cccc(N2CCc3[nH]c4cc(F)ccc4c3C2)n1` [Example 138] is < 10 µM; for `CC(C)Oc1cc(N2CCc3[nH]c4cc(F)ccc4c3C2)ccn1` [Example 139] it is 10 to 25 µM. The same measure, in the same setting: the figure for `COc1ccnc(N2CCc3[nH]c4cc(F)ccc4c3C2)c1` [Example 140] is < 10 µM; for `COc1ccc(N2CCc3[nH]c4cc(F)ccc4c3C2)nc1` [Example 141] it is 10 to 25 µM; for `C[C@@H]1CN(c2nc3cc(N4CCc5[nH]c6cc(F)ccc6c5C4)ccc3o2)C[C@H](C)O1` [Example 142] it is < 10 µM.

Take `CC(C)(C)Nc1nc2cc(N3CCc4[nH]c5cc(F)ccc5c4C3)ccc2o1` [Example 143]: in test [1], the EC50 was < 10 µM.

For `Cn1c2c(c3ccccc31)CN(c1ccc3oc(N4CCOCC4)nc3c1)CC2` [Example 144], the EC50 in test [1] is < 10 µM. The same measure, in the same setting: next, `CN1CCN(c2nc3cc(N4CCc5[nH]c6cc(F)ccc6c5C4)ccc3o2)CC1` [Example 145]: < 10 µM; `CCn1c2c(c3ccc(F)cc31)CN(c1ccc3oc(N4CCOCC4)nc3c1)CC2` [Example 146, 5-(5-ethyl-7-fluoro-3,4-dihydro-1H-pyrido[4,3-b]indol-2-yl)-2-morpholino-1,3-benzoxazole]: < 10 µM; `Cc1ccc(N2CCc3c(c4cc(F)ccc4n3C)C2)cc1O` [Example 147]: < 10 µM. Still for that read-out and setting: next, `COc1ccc(N2CCc3c(c4cc(F)ccc4n3C)C2)cc1` [Example 148]: < 10 µM. Consider `Cn1c2c(c3cc(F)ccc31)CN(c1ccc(OCCO)cc1)CC2` [Example 149], for which the EC50 in test [1] was < 10 µM. Consider `Cn1c2c(c3cc(F)ccc31)CN(c1ccc3cc(O)ccc3n1)CC2` [Example 150], for which, in test [1], the EC50 was < 10 µM.

Turning to `COc1cc(N2CCc3c(c4cc(F)ccc4n3C)C2)ccc1O` [Example 151], the EC50 in test [1] was < 10 µM. The same measure, in the same setting: next, `COc1cc(N2CCc3[nH]c4cc(F)ccc4c3C2)ccc1F` [Example 152]: < 10 µM.
